Test results as given in PubChem BioAssay (NCI).
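In this assay, cells in 96-well plates receive the compound at five concentrations for 48 hours. Endpoints are linearly interpolated between the surrounding concentrations. TGI marks complete inhibition of growth.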

Legend:
Experiment in all cases: NCI tumour cell line growth inhibition, 48 h
[1] = test system: HT29 colon
[2] = test system: M14 melanoma
[3] = test system: DU-145 prostate
[4] = test system: BT-549 breast
[5] = test system: SF-295 CNS
[6] = test system: HOP-62 NSCLC
[7] = test system: SK-MEL-5 melanoma
[8] = test system: MALME-3M melanoma
[9] = test system: NCI-H226 lung
[10] = test system: SW-620 colon
[11] = test system: NCI-H460 lung
[12] = test system: SK-MEL-28 melanoma
[13] = test system: NCI-H522 lung

| Structure (SMILES) | TGI [1] [µM] | TGI [2] [µM] | TGI [3] [µM] | TGI [4] [µM] | TGI [5] [µM] | TGI [6] [µM] | TGI [7] [µM] | TGI [8] [µM] | TGI [9] [µM] | TGI [10] [µM] | TGI [11] [µM] | TGI [12] [µM] | TGI [13] [µM] |
| --- | --- | --- | --- | --- | --- | --- | --- | --- | --- | --- | --- | --- | --- |
| O=C(Cn1c2ccc(Br)cc2c2nc3ccccc3nc21)N1CCOCC1 | > 100 | > 100 | > 100 | > 100 | > 100 | > 100 | > 100 | > 100 | > 100 | > 100 | > 100 | > 100 | – |
| Cc1cc(N(CCC#N)CCC#N)ccc1/C=C(\N=[N+]=[N-])C(=O)NC(=O)COc1ccccc1 | > 100 | > 100 | – | – | > 100 | > 100 | > 100 | > 100 | > 100 | > 100 | > 100 | > 100 | > 100 |
| C/C(CC(=O)Nc1cccc([N+](=O)[O-])c1)=N/NC(N)=S | > 100 | > 100 | – | – | > 100 | > 100 | > 100 | > 100 | > 100 | > 100 | > 100 | > 100 | > 100 |
| CSc1c(S(C)=O)c2ccccc2n1C (stereo unspecified) | > 100 | > 100 | > 100 | – | > 100 | > 100 | > 100 | > 100 | > 100 | > 100 | > 100 | > 100 | > 100 |
| C=C1C(=O)O[C@H]2C1C[C@H](O)/C(C)=C/CC[C@@]1(C)O[C@H]21 (stereo partly specified) | 50.9 | 23.9 | 49.5 | – | 82.5 | 91.5 | 22.6 | 19.5 | – | 21.6 | – | 38.7 | 3.43 |
| CC(=O)c1sc2c(c1OC(=O)c1ccccc1)c(=O)n(-c1ccccc1)c(=S)n2-c1ccccc1 | 12.9 | 14.3 | 79 | – | 16.7 | 45.9 | 18.4 | 5.92 | 8.33 | > 82.6 | > 59.5 | 30.4 | 67.8 |
| CN(C)C1(N(C)C)Oc2c(c(=O)n(C)c(=O)n2C)C(c2ccc(F)cc2)C1(F)F (stereo unspecified) | – | > 100 | > 100 | > 100 | > 100 | > 100 | > 100 | – | > 100 | > 100 | > 100 | > 100 | – |
| N#C/C(=C\c1ccccc1F)C(=O)c1ccccc1 | > 100 | > 100 | – | – | > 100 | > 100 | > 100 | > 100 | – | > 100 | – | > 100 | > 100 |
| CCOC(=O)C1=C(C)C2C3C(=O)OC(=O)C3C1(C)C1C(=O)OC(=O)C21 (stereo unspecified) | > 100 | > 100 | – | – | > 100 | > 100 | > 100 | > 100 | > 100 | > 100 | > 100 | > 100 | – |
| CCOC(OCC)[C@@H]1C[C@@H]2N(O[C@H](OC3CCCC3(c3ccccc3)c3ccccc3)[C@H](OC(C)=O)[C@@]2(CC)Cc2ccc(OC)c(OC)c2)O1 (stereo partly specified) | > 100 | > 100 | > 100 | > 100 | > 100 | > 100 | > 100 | – | > 100 | > 100 | > 100 | > 100 | > 100 |
| Cc1ccc(/C=C2\CCS(=O)(=O)c3ccccc3C2=O)cc1 | 31.9 | 73.6 | 27.7 | 34 | 40.5 | 80.4 | – | – | 36.2 | 47.9 | 31.3 | 39.1 | – |
| Cc1ccc2nc(-c3nccn3C)cc(C(=O)NC(C)CN(C)C)c2c1 (stereo unspecified) | > 100 | > 100 | > 100 | > 100 | – | > 100 | > 100 | > 100 | > 100 | > 100 | > 100 | > 100 | – |
| O=C(O)C1Cc2[nH]c3ccccc3c2C2CCCC12 (stereo unspecified) | – | > 100 | – | – | > 100 | – | > 100 | > 100 | > 100 | > 100 | > 100 | > 100 | > 100 |
| CC(C)(C)C1CCC2c3c([nH]c4ccccc34)C3C(=O)N(c4cc(Cl)ccc4Cl)C(=O)C3C2C1 (stereo unspecified) | > 100 | > 100 | > 100 | > 100 | > 100 | > 100 | > 100 | > 100 | > 100 | > 100 | > 100 | – | – |
| Cc1c2c(n3c(nc4ccccc43)c1C#N)NCC2 | > 10 | > 10 | > 10 | > 10 | > 10 | > 10 | > 10 | > 10 | > 10 | > 10 | > 10 | > 10 | – |
| CC(c1ccccc1)n1c2ccccc2c2c(N)ncnc21 (stereo unspecified) | 31.6 | 34.1 | 42.8 | – | 36.6 | 31.9 | 33.9 | 36 | – | 47.4 | 58.3 | 33.8 | 31.2 |
| Cc1nc2c(n1Cc1ccc(F)cc1)C(=O)c1ccccc1C2=O | > 100 | > 100 | – | – | > 100 | > 100 | 24.7 | 31.7 | > 100 | > 100 | > 100 | > 100 | 26 |
| O=C(O)c1ccc(Nc2nc3ccc(C(F)(F)F)cc3nc2C(=O)O)cc1 | > 100 | > 100 | > 100 | – | > 100 | > 100 | > 100 | > 100 | > 100 | > 100 | > 100 | > 100 | > 100 |
| O=S1(=O)OCCOS(=O)(=O)C1(Br)Br | > 100 | > 100 | – | – | > 100 | > 100 | > 100 | > 100 | 94.1 | > 100 | – | > 100 | > 100 |
